According to patent US11191811B2, “Osteocalcin as a treatment for frailty associated with aging” (THE TRUSTEES OF COLUMBIA UNIVERSITY IN THE CITY OF NEW YORK, priority 2014, dated 2021):
Read-outs that look alike come from different tables or passages of the source.

How the values were obtained:
gamma-carboxylase = biological target: T1, gamma-carboxylase (Homo sapiens, UniProt P38435); details: thiol-specific inhibitors; cited from earlier work
T1 sequence (P38435 1-758): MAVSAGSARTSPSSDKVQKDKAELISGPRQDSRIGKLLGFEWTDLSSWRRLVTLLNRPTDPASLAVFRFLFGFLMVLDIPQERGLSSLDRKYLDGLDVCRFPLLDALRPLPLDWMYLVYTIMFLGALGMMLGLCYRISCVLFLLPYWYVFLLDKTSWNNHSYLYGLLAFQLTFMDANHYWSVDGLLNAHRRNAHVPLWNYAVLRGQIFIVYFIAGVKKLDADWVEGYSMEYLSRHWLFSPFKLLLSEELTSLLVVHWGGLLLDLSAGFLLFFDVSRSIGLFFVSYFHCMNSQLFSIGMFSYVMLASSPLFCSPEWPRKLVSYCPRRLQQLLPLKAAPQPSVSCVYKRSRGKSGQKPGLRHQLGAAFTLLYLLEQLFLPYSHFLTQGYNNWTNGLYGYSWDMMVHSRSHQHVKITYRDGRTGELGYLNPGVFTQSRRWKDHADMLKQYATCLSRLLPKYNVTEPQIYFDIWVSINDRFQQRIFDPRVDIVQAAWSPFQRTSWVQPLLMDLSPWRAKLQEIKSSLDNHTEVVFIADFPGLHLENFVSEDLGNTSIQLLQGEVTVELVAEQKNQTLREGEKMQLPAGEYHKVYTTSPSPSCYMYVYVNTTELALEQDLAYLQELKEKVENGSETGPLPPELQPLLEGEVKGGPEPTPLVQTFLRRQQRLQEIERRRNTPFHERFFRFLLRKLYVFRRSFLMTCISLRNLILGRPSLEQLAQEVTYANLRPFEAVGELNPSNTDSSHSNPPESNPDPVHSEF

osteoblasts = experiment: Gene expression in osteoblasts treated with IL-6; format: cell-based
Excerpt: It was observed that treating osteoblasts with IL-6 decreased expression of Osteocalcin, thereby explaining why the circulating levels of total (carboxylated and uncarboxylated forms) osteocalcin are […] in Il6−/− mice. More importantly, IL-6 increased the expression in osteoblasts of Rankl, a cytokine that favors osteoclast differentiation and decreased the expression of Osteoprotegerin (Opg), a decoy receptor for Rankl and an inhibitor of bone resorption (Karsenty and Wagner, 2002, Developmental Cell 2:389-406; Palmqvist et al., 2002, J. Immunol. 169:3353-3362). This observation is consistent with the fact that the circulating levels of the undercarboxylated and active form of osteocalcin are decreased in Il6−/− mice (FIG. 29E). The regulation of Il-6 expression by osteocalcin signaling in myofibers and of bone resorption by IL-6 also explains why circulating levels of CTX, a biomarker of bone resorption, were low after exercise in Il6−/− and Gprc6aMck−/− mice (FIG. 29G-H). These experiments reveal the existence of a feed-forward regulation between osteocalcin production in bone and IL-6 synthesis in muscle that is necessary for the increase in muscle function during exercise. This regulatory loop should synergize with the ability of IL-6 to favor liver gluconeogenesis and lipolysis, since these two other functions of IL-6 increase the pool of nutrients made available for myofibers during exercise.
Serum osteocalcin, PINP, CTX, and insulin levels were measured using ELISA assays. Blood glucose level was measured using an Accu-Check glucometer. Urine 3-MHT was measured as previously described (Aranibar et al., 2011, Anal. Biochem. 410:84-91). Determination of cAMP accumulation was performed using a commercial kit (R&D). For gene expression, 1 μg of total RNA was reverse transcribed into cDNA. qPCR analyses were performed using a SYBER green master mix (Applied Biosciences) and a CFX-Connect real time PCR (Bio-Rad). Relative expression levels of each gene were normalized to that of Hprt or Gapdh. For in situ hybridization, muscle was frozen in liquid N2-cooled methylbutane. Samples were sectioned at 10 μm using a cryostat. In situ hybridization was performed with a DIG-labeled riboprobe as previously described (Oury et al., 2011, Cell 144:796-809).

Molecule: O=C([O-])c1cc[c]([Hg][OH])cc1 [pHMB, p-hydroxymurcuribenzoate]
- gamma-carboxylase enzyme activity (gamma-carboxylase): inhibited

Molecule: CCN1C(=O)C=CC1=O [N-ethylmaleimide]
- gamma-carboxylase enzyme activity (gamma-carboxylase): inhibited

Molecule: IL-6: interleukin-6 (IL-6), a myokine whose circulating levels raise during exercise
- expression of Osteocalcin in osteoblasts (osteoblasts): decreased
- expression of Osteoprotegerin (Opg) in osteoblasts (osteoblasts): decreased
- expression of Rankl in osteoblasts (osteoblasts): increased
- expression of Osteocalcin in osteoblasts (osteoblasts; listed as interleukin-6): inhibits
- expression of Rankl in osteoblasts (osteoblasts; listed as interleukin-6): stimulating
